Assay results: the supplement of paper PMC10307832

What was measured:
Assay in all cases: relative viability (nuclei count vs DMSO), 5 days (fraction); higher = more cells survive
Dinaciclib = compound: CCc1cnn2c(NCc3ccc[n+]([O-])c3)cc(N3CCCC[C@H]3CCO)nc12 [Dinaciclib]
Outline: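 Lung cancer cell lines were seeded into 1536-well plates, kept overnight at 37 °C and pinned with five library-drug doses (not always all listed) spaced by √10. After 5 days, nuclei were Hoechst-stained, imaged at 4× and counted with MetaXpress. Viability is treated-well nuclei over vehicle-well nuclei, taken as a median across plates. Plates needed control CV below 25% and at least one doubling.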

Dinaciclib + Alpelisib = compound: CCc1cnn2c(NCc3ccc[n+]([O-])c3)cc(N3CCCC[C@H]3CCO)nc12 [Dinaciclib] + Cc1nc(NC(=O)N2CCC[C@H]2C(N)=O)sc1-c1ccnc(C(C)(C)C(F)(F)F)c1 [Alpelisib] (partner 2 µM)
Outline: (§1)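 For relative viability, nuclei counts in treated wells were divided by those in vehicle wells. Lung cancer cell lines had been pin-tool dosed in 1536-well plates the day after seeding and cultured for 5 days, then fixed and stained in one step (final 0.05% Triton X-100, 1% formaldehyde, 1 ug/ml Hoechst) and imaged at 4×. Doses were one drug alone or a fixed anchor-drug dose plus five library-drug doses (not always all listed) in √10 steps, and values are duplicate-plate medians.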

Dinaciclib + Olaparib = compound: CCc1cnn2c(NCc3ccc[n+]([O-])c3)cc(N3CCCC[C@H]3CCO)nc12 [Dinaciclib] + O=C(c1cc(Cc2n[nH]c(=O)c3ccccc23)ccc1F)N1CCN(C(=O)C2CC2)CC1 [Olaparib] (partner 8 µM)
Outline: as §1

Dinaciclib + Lapatinib = compound: CCc1cnn2c(NCc3ccc[n+]([O-])c3)cc(N3CCCC[C@H]3CCO)nc12 [Dinaciclib] + CS(=O)(=O)CCNCc1ccc(-c2ccc3ncnc(Nc4ccc(OCc5cccc(F)c5)c(Cl)c4)c3c2)o1 [Lapatinib] (partner 2 µM)
Outline: as §1

Dinaciclib + Pictilisib = compound: CCc1cnn2c(NCc3ccc[n+]([O-])c3)cc(N3CCCC[C@H]3CCO)nc12 [Dinaciclib] + CS(=O)(=O)N1CCN(Cc2cc3nc(-c4cccc5[nH]ncc45)nc(N4CCOCC4)c3s2)CC1 [Pictilisib] (partner 1 µM)
Outline: as §1

Dinaciclib + Linsitinib = compound: CCc1cnn2c(NCc3ccc[n+]([O-])c3)cc(N3CCCC[C@H]3CCO)nc12 [Dinaciclib] + C[C@]1(O)C[C@@H](c2nc(-c3ccc4ccc(-c5ccccc5)nc4c3)c3c(N)nccn32)C1 [Linsitinib] (partner 1 µM)
Outline: as §1

Dinaciclib + Foretinib = compound: CCc1cnn2c(NCc3ccc[n+]([O-])c3)cc(N3CCCC[C@H]3CCO)nc12 [Dinaciclib] + COc1cc2c(Oc3ccc(NC(=O)C4(C(=O)Nc5ccc(F)cc5)CC4)cc3F)ccnc2cc1OCCCN1CCOCC1 [Foretinib] (partner 0.25 µM)
Outline: as §1

Dinaciclib + Crizotinib = compound: CCc1cnn2c(NCc3ccc[n+]([O-])c3)cc(N3CCCC[C@H]3CCO)nc12 [Dinaciclib] + C[C@@H](Oc1cc(-c2cnn(C3CCNCC3)c2)cnc1N)c1c(Cl)ccc(F)c1Cl [Crizotinib] (partner 1 µM)
Outline: as §1

Dinaciclib + Navitoclax = compound: CCc1cnn2c(NCc3ccc[n+]([O-])c3)cc(N3CCCC[C@H]3CCO)nc12 [Dinaciclib] + CC1(C)CCC(c2ccc(Cl)cc2)=C(CN2CCN(c3ccc(C(=O)NS(=O)(=O)c4ccc(N[C@H](CCN5CCOCC5)CSc5ccccc5)c(S(=O)(=O)C(F)(F)F)c4)cc3)CC2)C1 [Navitoclax] (partner 0.5 µM)
Outline: as §1

Dinaciclib + Bortezomib = compound: CCc1cnn2c(NCc3ccc[n+]([O-])c3)cc(N3CCCC[C@H]3CCO)nc12 [Dinaciclib] + CC(C)C[C@H](NC(=O)[C@H](Cc1ccccc1)NC(=O)c1cnccn1)B(O)O [Bortezomib] (partner 0.002 µM)
Outline: as §1

Cell Line: NCI-H1299
- relative viability (Dinaciclib; 0.009487 µM): 0.98
- relative viability (Dinaciclib; 0.03 µM): 0.371
- relative viability (Dinaciclib; 0.09487 µM): 0.121
- relative viability (Dinaciclib; 0.3 µM): 0.0997
- relative viability (Dinaciclib + Alpelisib; first compound 0.009487 µM): 1.09
- relative viability (Dinaciclib + Alpelisib; first compound 0.03 µM): 0.821
- relative viability (Dinaciclib + Alpelisib; first compound 0.09487 µM): 0.15
- relative viability (Dinaciclib + Alpelisib; first compound 0.3 µM): 0.188
- relative viability (Dinaciclib + Olaparib; first compound 0.009487 µM): 0.962
- relative viability (Dinaciclib + Olaparib; first compound 0.03 µM): 0.16
- relative viability (Dinaciclib + Olaparib; first compound 0.09487 µM): 0.0946
- relative viability (Dinaciclib + Olaparib; first compound 0.3 µM): 0.104
- relative viability (Dinaciclib + Lapatinib; first compound 0.009487 µM): 0.824
- relative viability (Dinaciclib + Lapatinib; first compound 0.03 µM): 0.198
- relative viability (Dinaciclib + Lapatinib; first compound 0.09487 µM): 0.137
- relative viability (Dinaciclib + Lapatinib; first compound 0.3 µM): 0.124
- relative viability (Dinaciclib + Pictilisib; first compound 0.009487 µM): 0.416
- relative viability (Dinaciclib + Pictilisib; first compound 0.03 µM): 0.0311
- relative viability (Dinaciclib + Pictilisib; first compound 0.09487 µM): 0.0181
- relative viability (Dinaciclib + Pictilisib; first compound 0.3 µM): 0.0214
- relative viability (Dinaciclib + Linsitinib; first compound 0.009487 µM): 0.883
- relative viability (Dinaciclib + Linsitinib; first compound 0.03 µM): 0.24
- relative viability (Dinaciclib + Linsitinib; first compound 0.09487 µM): 0.103
- relative viability (Dinaciclib + Linsitinib; first compound 0.3 µM): 0.0705
- relative viability (Dinaciclib + Foretinib; first compound 0.009487 µM): 0.986
- relative viability (Dinaciclib + Foretinib; first compound 0.03 µM): 0.202
- relative viability (Dinaciclib + Foretinib; first compound 0.09487 µM): 0.104
- relative viability (Dinaciclib + Foretinib; first compound 0.3 µM): 0.088
- relative viability (Dinaciclib + Crizotinib; first compound 0.009487 µM): 0.709
- relative viability (Dinaciclib + Crizotinib; first compound 0.03 µM): 0.681
- relative viability (Dinaciclib + Crizotinib; first compound 0.09487 µM): 0.144
- relative viability (Dinaciclib + Crizotinib; first compound 0.3 µM): 0.111
- relative viability (Dinaciclib + Navitoclax; first compound 0.009487 µM): 1.12
- relative viability (Dinaciclib + Navitoclax; first compound 0.03 µM): 0.27
- relative viability (Dinaciclib + Navitoclax; first compound 0.09487 µM): 0.107
- relative viability (Dinaciclib + Navitoclax; first compound 0.3 µM): 0.107
- relative viability (Dinaciclib + Bortezomib; first compound 0.009487 µM): 1.05
- relative viability (Dinaciclib + Bortezomib; first compound 0.03 µM): 0.216
- relative viability (Dinaciclib + Bortezomib; first compound 0.09487 µM): 0.142
- relative viability (Dinaciclib + Bortezomib; first compound 0.3 µM): 0.135
